PubChem BioAssay AID1745844 (Carcinogenic Potency Database (CPDB), 2022)
Values joined by “and” are separate entries in the source; they are usually repeats but may differ in a detail not shown here. Equal values may be shown once. Active and inactive are the calls of the source. No rule for the calls is given here.

Tested on: rodent lifetime carcinogenesis bioassay, tumor incidence TD50
Assay: carcinogenic potency in animals, long-term in vivo studies, CPDB compilation (AID 1745844)

## Cn1c(=O)c2[nH]cnc2n(C)c1=O
mouse, strain B6C3F1, females, by gavage, site: all sites, lesion: histiocytic sarcoma, dosed 103 weeks, study length 104 weeks
  TD50: 20.5 mg/kg/day (inactive)
mouse, strain B6C3F1, males, by gavage, site: any site (literature study), lesion: several types, types named in the paper, dosed 103 weeks, study length 104 weeks
  carcinogen call: negative (inactive)
rat, strain Fischer 344, females, by gavage, site: any site (literature study), lesion: several types, types named in the paper, dosed 104 weeks, study length 104 weeks
  carcinogen call: negative (inactive)
rat, strain Fischer 344, males, by gavage, site: any site (literature study), lesion: several types, types named in the paper, dosed 104 weeks, study length 104 weeks
  carcinogen call: negative (inactive)

## O=NN1CC=CCC1
rat, strain Fischer 344, females, in drinking water, site: esophagus, lesion: several types, types named in the paper, dosed 25 weeks, study length 128 weeks
  TD50: 0.216 mg/kg/day
rat, strain Fischer 344, females, in drinking water, site: esophagus, lesion: several types, types named in the paper, dosed 70 weeks, study length 100 weeks
  TD50: 0.127 mg/kg/day
rat, strain Fischer 344, females, in drinking water, site: esophagus, lesion: several types, types named in the paper, dosed 100 weeks, study length 128 weeks
  TD50: 0.0669 mg/kg/day
rat, strain Fischer 344, females, in drinking water, site: esophagus, lesion: squamous-cell carcinoma, dosed 100 weeks, study length 128 weeks
  TD50: 0.43 mg/kg/day
rat, strain Fischer 344, females, in drinking water, site: liver, lesion: hemangiosarcoma, dosed 25 weeks, study length 128 weeks
  TD50: 4.04 mg/kg/day
rat, strain Fischer 344, females, in drinking water, site: liver, lesion: hepatocellular carcinoma, dosed 25 weeks, study length 128 weeks
  carcinogen call: positive
rat, strain Fischer 344, females, in drinking water, site: liver, lesion: hyperplastic nodule, dosed 70 weeks, study length 100 weeks
  TD50: 2.15 mg/kg/day
rat, strain Fischer 344, females, in drinking water, site: liver, lesion: hyperplastic nodule, dosed 100 weeks, study length 128 weeks
  TD50: 0.284 mg/kg/day
rat, strain Fischer 344, females, in drinking water, site: liver, lesion: several types, types named in the paper, dosed 25 weeks, study length 128 weeks
  carcinogen call: positive
rat, strain Fischer 344, females, in drinking water, site: liver, lesion: several types, types named in the paper, dosed 100 weeks, study length 128 weeks
  TD50: 0.132 mg/kg/day
rat, strain Fischer 344, females, in drinking water, site: stomach, nonglandular, lesion: basal-cell papilloma, dosed 25 weeks, study length 128 weeks
  carcinogen call: positive
rat, strain Fischer 344, females, in drinking water, site: stomach, nonglandular, lesion: basal-cell papilloma, dosed 100 weeks, study length 128 weeks
  TD50: 0.0551 mg/kg/day
rat, strain Fischer 344, females, in drinking water, site: upper gastrointestinal tract, lesion: carcinoma, dosed 25 weeks, study length 128 weeks
  TD50: 0.271 mg/kg/day
rat, strain Fischer 344, females, in drinking water, site: upper gastrointestinal tract, lesion: carcinoma, dosed 70 weeks, study length 100 weeks
  TD50: 0.0966 mg/kg/day
rat, strain Fischer 344, females, in drinking water, site: upper gastrointestinal tract, lesion: carcinoma, dosed 100 weeks, study length 128 weeks
  TD50: 0.0856 mg/kg/day
rat, strain Fischer 344, females, in drinking water, site: upper gastrointestinal tract, lesion: several types, types named in the paper, dosed 25 weeks, study length 128 weeks
  TD50: 0.142 mg/kg/day
rat, strain Fischer 344, females, in drinking water, site: upper gastrointestinal tract, lesion: several types, types named in the paper, dosed 70 weeks, study length 100 weeks
  carcinogen call: positive
rat, strain Fischer 344, females, in drinking water, site: upper gastrointestinal tract, lesion: several types, types named in the paper, dosed 100 weeks, study length 128 weeks
  TD50: 0.0374 mg/kg/day

## Cc1cn([C@H]2C[C@H](N=[N+]=[N-])[C@@H](CO)O2)c(=O)[nH]c1=O
mouse, strain B6C3F1, females, by gavage, site: any site (literature study), lesion: several types, types named in the paper, dosed 104 weeks, study length 104 weeks
  TD50: 221 mg/kg/day
mouse, strain B6C3F1, females, by gavage, site: liver, lesion: hepatocellular adenoma + hepatoblastoma + hepatocellular carcinoma, dosed 104 weeks, study length 104 weeks
  TD50: 139 mg/kg/day
mouse, strain B6C3F1, females, by gavage, site: lung, lesion: alveolar/bronchiolar adenoma + alveolar/bronchiolar carcinoma, dosed 104 weeks, study length 104 weeks
  TD50: 510 mg/kg/day
mouse, strain B6C3F1, females, by gavage, site: vagina, lesion: squamous-cell carcinoma + squamous-cell papilloma, dosed 104 weeks, study length 104 weeks
  TD50: 209 mg/kg/day
mouse, strain B6C3F1, females, by gavage, site: vagina, lesion: squamous-cell carcinoma, dosed 104 weeks, study length 104 weeks
  TD50: 246 mg/kg/day
mouse, strain B6C3F1, males, by gavage, site: Harderian gland, lesion: adenoma + carcinoma, dosed 104 weeks, study length 104 weeks
  TD50: 458 mg/kg/day
mouse, strain B6C3F1, males, by gavage, site: Harderian gland, lesion: adenoma, dosed 104 weeks, study length 104 weeks
  TD50: 425 mg/kg/day
mouse, strain B6C3F1, males, by gavage, site: kidney, lesion: tubule adenoma + tubule carcinoma, dosed 104 weeks, study length 104 weeks
  TD50: 929 mg/kg/day
mouse, strain B6C3F1, males, by gavage, site: kidney, lesion: tubule adenoma, dosed 104 weeks, study length 104 weeks
  TD50: 1250 mg/kg/day
mouse, strain Charles River CD1, females, by gavage, site: any site (literature study), lesion: several types, types named in the paper, dosed 95 weeks, study length 95 weeks
  TD50: 131 mg/kg/day
mouse, strain Charles River CD1, females, by gavage, site: vagina, lesion: several types, types named in the paper, dosed 95 weeks, study length 95 weeks
  TD50: 508 mg/kg/day
mouse, strain Charles River CD1, females, by gavage, site: vagina, lesion: squamous-cell carcinoma, dosed 95 weeks, study length 95 weeks
  TD50: 715 mg/kg/day
mouse, strain Charles River CD1, males, by gavage, site: any site (literature study), lesion: several types, types named in the paper, dosed 82 weeks, study length 82 weeks
  carcinogen call: negative (inactive)
rat, strain Charles River CD (Sprague-Dawley), females, by gavage, site: vagina, lesion: squamous-cell carcinoma, dosed 95 weeks, study length 95 weeks
  TD50: 11600 mg/kg/day
rat, strain Charles River CD (Sprague-Dawley), males, by gavage, site: any site (literature study), lesion: several types, types named in the paper, dosed 103 weeks, study length 103 weeks
  carcinogen call: negative (inactive)

## CC(=O)Nc1nc(-c2ccc([N+](=O)[O-])o2)cs1
hamster, strain Syrian Golden, males, in feed, site: forestomach, lesion: squamous-cell papilloma, dosed 48 weeks, study length 70 weeks
  TD50: 68.1 mg/kg/day
hamster, strain Syrian Golden, males, in feed, site: urinary bladder, lesion: several types, types named in the paper, dosed 48 weeks, study length 70 weeks
  TD50: 8.91 mg/kg/day
hamster, strain Syrian Golden, males, in feed, site: urinary bladder, lesion: squamous-cell carcinoma, dosed 48 weeks, study length 70 weeks
  TD50: 60.2 mg/kg/day
rat, strain Sprague-Dawley, females, in feed, site: kidney/pelvis, lesion: transitional-cell carcinoma, dosed 46 weeks, study length 66 weeks
  TD50: 316 mg/kg/day and 660 mg/kg/day
rat, strain Sprague-Dawley, females, in feed, site: mammary gland, lesion: adenocarcinoma, dosed 46 weeks, study length 66 weeks
  TD50: 36.2 mg/kg/day
rat, strain Sprague-Dawley, females, in feed, site: mammary gland, lesion: fibroadenoma, dosed 46 weeks, study length 66 weeks
  TD50: 56.9 mg/kg/day and 25 mg/kg/day and 30.2 mg/kg/day
rat, strain Sprague-Dawley, females, in feed, site: mammary tissue, wider than the gland, lesion: several types, types named in the paper, dosed 46 weeks, study length 66 weeks
  TD50: 10.5 mg/kg/day

## CC1=C(CC(=O)O)c2cc(F)ccc2/C1=C\c1ccc(S(C)(=O)=O)cc1
rat, strain Fischer 344, males, in feed, site: colon, lesion: one or several types, types not named, dosed 53 weeks, study length 53 weeks
  carcinogen call: negative (inactive)

## COP(=O)(OC)OC
mouse, strain B6C3F1, females, by gavage, site: any site (literature study), lesion: several types, types named in the paper, dosed 103 weeks, study length 103 weeks
  TD50: 385 mg/kg/day
mouse, strain B6C3F1, females, by gavage, site: liver, lesion: hepatocellular adenoma + hepatocellular carcinoma + neoplastic nodule, dosed 103 weeks, study length 103 weeks
  TD50: 6390 mg/kg/day
mouse, strain B6C3F1, females, by gavage, site: lung, lesion: alveolar/bronchiolar adenoma + alveolar/bronchiolar carcinoma, dosed 103 weeks, study length 103 weeks
  TD50: 3900 mg/kg/day
mouse, strain B6C3F1, females, by gavage, site: uterus, endometrium, lesion: adenocarcinoma, NOS, dosed 103 weeks, study length 103 weeks
  TD50: 335 mg/kg/day
mouse, strain B6C3F1, males, by gavage, site: any site (literature study), lesion: several types, types named in the paper, dosed 103 weeks, study length 103 weeks
  carcinogen call: negative (inactive)
mouse, strain B6C3F1, males, by gavage, site: lung, lesion: alveolar/bronchiolar adenoma + alveolar/bronchiolar carcinoma, dosed 103 weeks, study length 103 weeks
  TD50: 61300 mg/kg/day
rat, strain BOR:WISW (Wistar), females, in drinking water, site: any site (literature study), lesion: one or several types, types not named, dosed 52 weeks, study length 52 weeks
  carcinogen call: negative (inactive)
rat, strain BOR:WISW (Wistar), females, in drinking water, site: any site (literature study), lesion: several types, types named in the paper, dosed 118 weeks, study length 128 weeks
  carcinogen call: negative (inactive)
rat, strain BOR:WISW (Wistar), females, in drinking water, site: liver, lesion: hepatoma, dosed 118 weeks, study length 128 weeks
  carcinogen call: negative (inactive)
rat, strain BOR:WISW (Wistar), males, in drinking water, site: any site (literature study), lesion: one or several types, types not named, dosed 52 weeks, study length 52 weeks
  carcinogen call: negative (inactive)
rat, strain BOR:WISW (Wistar), males, in drinking water, site: any site (literature study), lesion: several types, types named in the paper, dosed 118 weeks, study length 128 weeks
  carcinogen call: negative (inactive)
rat, strain BOR:WISW (Wistar), males, in drinking water, site: liver, lesion: hepatoma, dosed 118 weeks, study length 128 weeks
  carcinogen call: negative (inactive)
rat, strain Fischer 344, females, by gavage, site: any site (literature study), lesion: several types, types named in the paper, dosed 104 weeks, study length 105 weeks
  TD50: 73 mg/kg/day (inactive)
rat, strain Fischer 344, males, by gavage, site: any site (literature study), lesion: several types, types named in the paper, dosed 104 weeks, study length 105 weeks
  TD50: 54.5 mg/kg/day
rat, strain Fischer 344, males, by gavage, site: liver, lesion: hepatocellular adenoma + hepatocellular carcinoma + neoplastic nodule, dosed 104 weeks, study length 105 weeks
  TD50: 485 mg/kg/day
rat, strain Fischer 344, males, by gavage, site: subcutaneous tissue, lesion: fibroma, dosed 104 weeks, study length 105 weeks
  TD50: 123 mg/kg/day

## O=S(=O)([O-])[O-].[Ni+2]
mouse, strain B6C3F1, females, inhaled, site: any site (literature study), lesion: several types, types named in the paper, dosed 104 weeks, study length 104 weeks
  carcinogen call: negative (inactive)
mouse, strain B6C3F1, females, inhaled, site: lung, lesion: alveolar/bronchiolar adenoma + alveolar/bronchiolar carcinoma, dosed 104 weeks, study length 104 weeks
  TD50: 3.1 mg/kg/day
mouse, strain B6C3F1, males, inhaled, site: any site (literature study), lesion: several types, types named in the paper, dosed 104 weeks, study length 105 weeks
  carcinogen call: negative (inactive)
rat, strain Fischer 344, females, inhaled, site: any site (literature study), lesion: several types, types named in the paper, dosed 104 weeks, study length 104 weeks
  carcinogen call: negative (inactive)
rat, strain Fischer 344, males, inhaled, site: any site (literature study), lesion: several types, types named in the paper, dosed 104 weeks, study length 105 weeks
  carcinogen call: negative (inactive)
rat, strain Fischer 344, males, inhaled, site: liver, lesion: hepatocellular adenoma + hepatoblastoma + hepatocellular carcinoma, dosed 104 weeks, study length 105 weeks
  TD50: 2.08 mg/kg/day
